ChEMBL document CHEMBL1909046, “DrugMatrix in vitro pharmacology data”

What was measured:
[1] = target: T1, 5-hydroxytryptamine receptor 1A (Rattus norvegicus, UniProt P19327); type: cell membranes, CHO-K1, Membrane; details: for Ki: read-out: Ki; as to all read-outs here: in other assays of this panel Not Active means under 50% inhibition at 10 µM
T1 sequence (P19327 whole entry): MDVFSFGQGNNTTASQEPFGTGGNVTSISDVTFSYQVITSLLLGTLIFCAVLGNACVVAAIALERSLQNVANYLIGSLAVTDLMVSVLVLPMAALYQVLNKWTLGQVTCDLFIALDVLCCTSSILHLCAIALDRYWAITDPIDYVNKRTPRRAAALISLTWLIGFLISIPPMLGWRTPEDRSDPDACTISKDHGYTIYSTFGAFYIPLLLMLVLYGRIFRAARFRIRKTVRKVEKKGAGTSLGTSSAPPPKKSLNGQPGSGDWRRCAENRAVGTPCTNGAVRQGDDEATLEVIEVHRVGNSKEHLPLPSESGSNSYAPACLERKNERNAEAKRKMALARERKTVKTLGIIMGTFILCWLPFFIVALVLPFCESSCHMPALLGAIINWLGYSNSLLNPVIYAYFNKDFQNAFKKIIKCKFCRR

[2] = target: T2, Angiotensin-converting enzyme (Oryctolagus cuniculus, UniProt P12822); type: tissue-based, Lung;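 also: enzymatic inhibition of angiotensin-converting enzyme measured with FAPGG as the substrate; in other assays of this panel Not Active means under 50% inhibition at 10 µM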
T2 sequence (P12822 whole entry): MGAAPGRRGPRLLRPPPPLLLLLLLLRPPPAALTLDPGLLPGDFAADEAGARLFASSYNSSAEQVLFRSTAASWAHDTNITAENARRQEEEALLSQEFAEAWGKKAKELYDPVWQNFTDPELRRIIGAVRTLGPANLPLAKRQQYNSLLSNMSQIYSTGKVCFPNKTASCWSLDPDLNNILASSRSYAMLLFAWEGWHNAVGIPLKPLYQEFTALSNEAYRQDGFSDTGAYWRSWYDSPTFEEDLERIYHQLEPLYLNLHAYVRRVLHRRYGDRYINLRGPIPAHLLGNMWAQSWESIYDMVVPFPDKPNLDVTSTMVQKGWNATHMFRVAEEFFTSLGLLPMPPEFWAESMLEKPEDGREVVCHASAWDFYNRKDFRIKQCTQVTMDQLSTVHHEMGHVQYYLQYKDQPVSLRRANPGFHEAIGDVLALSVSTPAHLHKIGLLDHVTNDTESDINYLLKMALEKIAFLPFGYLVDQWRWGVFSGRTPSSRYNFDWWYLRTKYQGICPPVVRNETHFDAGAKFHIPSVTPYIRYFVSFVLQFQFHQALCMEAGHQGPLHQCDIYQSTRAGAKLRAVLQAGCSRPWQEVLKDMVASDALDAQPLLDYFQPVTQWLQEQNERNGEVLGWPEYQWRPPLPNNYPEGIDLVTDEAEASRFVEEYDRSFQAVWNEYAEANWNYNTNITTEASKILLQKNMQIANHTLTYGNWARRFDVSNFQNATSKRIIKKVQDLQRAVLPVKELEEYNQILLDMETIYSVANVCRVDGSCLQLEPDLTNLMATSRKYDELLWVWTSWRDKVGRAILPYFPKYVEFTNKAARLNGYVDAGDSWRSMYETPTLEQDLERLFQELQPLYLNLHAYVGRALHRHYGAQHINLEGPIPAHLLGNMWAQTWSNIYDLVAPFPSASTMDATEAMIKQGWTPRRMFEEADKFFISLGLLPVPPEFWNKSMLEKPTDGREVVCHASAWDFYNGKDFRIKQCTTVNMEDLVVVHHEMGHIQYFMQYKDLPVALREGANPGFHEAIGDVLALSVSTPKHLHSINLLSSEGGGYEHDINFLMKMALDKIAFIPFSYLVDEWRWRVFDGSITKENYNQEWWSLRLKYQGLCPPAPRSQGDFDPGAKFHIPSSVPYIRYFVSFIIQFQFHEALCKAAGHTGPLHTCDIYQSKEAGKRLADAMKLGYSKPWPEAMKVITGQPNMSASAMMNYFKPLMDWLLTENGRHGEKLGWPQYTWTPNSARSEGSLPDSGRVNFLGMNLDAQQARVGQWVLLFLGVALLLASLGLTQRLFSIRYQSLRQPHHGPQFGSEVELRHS

[3] = target: 5-hydroxytryptamine receptor 1B (Rattus norvegicus, UniProt P28564); type: cell membranes, Wistar, Cerebral cortex, Membrane; details: for Ki: read-out: Ki; as to all read-outs here: in other assays of this panel Not Active means under 50% inhibition at 10 µM
Chain of 5-hydroxytryptamine receptor 1B (P28564 whole entry): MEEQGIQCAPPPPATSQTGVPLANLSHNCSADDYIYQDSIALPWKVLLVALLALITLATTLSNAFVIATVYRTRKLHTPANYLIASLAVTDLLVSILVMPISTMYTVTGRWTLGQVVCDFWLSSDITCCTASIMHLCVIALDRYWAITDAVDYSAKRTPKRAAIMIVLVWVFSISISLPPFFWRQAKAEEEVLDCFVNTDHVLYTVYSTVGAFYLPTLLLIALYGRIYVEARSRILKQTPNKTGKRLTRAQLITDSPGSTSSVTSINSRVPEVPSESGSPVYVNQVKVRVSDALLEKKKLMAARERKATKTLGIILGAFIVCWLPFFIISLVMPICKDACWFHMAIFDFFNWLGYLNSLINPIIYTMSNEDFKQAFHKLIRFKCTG

[4] = target: Mitogen-activated protein kinase 3 (Homo sapiens, UniProt P27361); assay: DRUGMATRIX: Protein Serine/Threonine Kinase, ERK1 enzyme inhibition (substrate: Myelin Basic Protein); set-up: species or system Escherichia coli; details: Not Active = under 50% inhibition at 10 µM
Chain of Mitogen-activated protein kinase 3 (P27361 whole entry): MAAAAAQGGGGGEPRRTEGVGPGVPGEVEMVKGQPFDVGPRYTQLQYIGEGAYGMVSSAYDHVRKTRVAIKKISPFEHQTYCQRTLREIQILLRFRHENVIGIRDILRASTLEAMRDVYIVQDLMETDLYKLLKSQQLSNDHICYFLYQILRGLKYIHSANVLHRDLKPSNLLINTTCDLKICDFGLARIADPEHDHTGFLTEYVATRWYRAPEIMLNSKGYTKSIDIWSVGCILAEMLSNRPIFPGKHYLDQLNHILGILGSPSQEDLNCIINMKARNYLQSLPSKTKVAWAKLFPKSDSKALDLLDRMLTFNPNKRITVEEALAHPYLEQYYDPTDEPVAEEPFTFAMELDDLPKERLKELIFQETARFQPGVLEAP

Cytochrome P450 2A6 = target: T3, Cytochrome P450 2A6 (Homo sapiens, UniProt P11509); details: bti-tn-5b1-4; also: in other assays of this panel Not Active means under 50% inhibition at 10 µM
T3 sequence (P11509 whole entry): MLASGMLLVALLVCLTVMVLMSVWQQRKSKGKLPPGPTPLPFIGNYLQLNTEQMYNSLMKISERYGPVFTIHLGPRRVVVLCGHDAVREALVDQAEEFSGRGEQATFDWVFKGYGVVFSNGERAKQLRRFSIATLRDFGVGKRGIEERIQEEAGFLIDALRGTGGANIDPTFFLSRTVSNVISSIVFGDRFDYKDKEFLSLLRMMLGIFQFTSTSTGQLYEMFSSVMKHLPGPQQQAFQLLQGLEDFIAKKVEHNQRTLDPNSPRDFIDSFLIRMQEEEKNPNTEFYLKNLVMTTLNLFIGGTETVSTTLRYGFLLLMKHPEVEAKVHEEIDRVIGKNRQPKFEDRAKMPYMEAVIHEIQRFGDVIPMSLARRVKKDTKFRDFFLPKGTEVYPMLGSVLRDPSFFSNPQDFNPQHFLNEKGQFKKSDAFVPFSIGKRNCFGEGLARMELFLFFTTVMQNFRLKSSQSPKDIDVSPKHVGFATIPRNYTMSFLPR

[5] = DRUGMATRIX: GABAA, Muscimol, Central radioligand binding (ligand: [3H] Muscimol); type: cell membranes, Rattus norvegicus, Wistar, Brain, Membrane; details: Not Active = under 50% inhibition at 10 µM
Insulin receptor = Insulin receptor (Rattus norvegicus, UniProt P15127); type: cell membranes, Wistar, Liver, Membrane; also: in other assays of this panel Not Active means under 50% inhibition at 10 µM
Chain of Insulin receptor (P15127 27-759 limits assumed): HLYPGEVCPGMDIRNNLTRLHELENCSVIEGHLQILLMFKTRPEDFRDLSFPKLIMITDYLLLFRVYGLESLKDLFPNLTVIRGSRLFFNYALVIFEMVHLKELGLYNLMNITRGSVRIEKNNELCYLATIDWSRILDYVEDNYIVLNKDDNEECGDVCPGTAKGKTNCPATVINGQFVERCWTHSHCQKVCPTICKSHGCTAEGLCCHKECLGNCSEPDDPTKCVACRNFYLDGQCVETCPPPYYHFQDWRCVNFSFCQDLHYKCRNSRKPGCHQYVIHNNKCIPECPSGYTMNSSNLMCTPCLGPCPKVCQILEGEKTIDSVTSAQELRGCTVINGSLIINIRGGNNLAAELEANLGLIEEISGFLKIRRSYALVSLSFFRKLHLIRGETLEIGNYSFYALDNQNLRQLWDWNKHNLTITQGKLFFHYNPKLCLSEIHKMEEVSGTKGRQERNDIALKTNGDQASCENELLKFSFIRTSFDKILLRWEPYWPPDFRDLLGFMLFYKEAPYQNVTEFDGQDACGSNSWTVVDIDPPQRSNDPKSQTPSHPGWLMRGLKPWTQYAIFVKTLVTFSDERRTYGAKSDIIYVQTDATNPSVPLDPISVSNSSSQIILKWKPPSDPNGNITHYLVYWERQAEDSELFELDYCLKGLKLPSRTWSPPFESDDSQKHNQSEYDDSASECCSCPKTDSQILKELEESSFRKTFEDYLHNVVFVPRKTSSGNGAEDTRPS
Chain of Insulin receptor (P15127 764-1383 limits assumed): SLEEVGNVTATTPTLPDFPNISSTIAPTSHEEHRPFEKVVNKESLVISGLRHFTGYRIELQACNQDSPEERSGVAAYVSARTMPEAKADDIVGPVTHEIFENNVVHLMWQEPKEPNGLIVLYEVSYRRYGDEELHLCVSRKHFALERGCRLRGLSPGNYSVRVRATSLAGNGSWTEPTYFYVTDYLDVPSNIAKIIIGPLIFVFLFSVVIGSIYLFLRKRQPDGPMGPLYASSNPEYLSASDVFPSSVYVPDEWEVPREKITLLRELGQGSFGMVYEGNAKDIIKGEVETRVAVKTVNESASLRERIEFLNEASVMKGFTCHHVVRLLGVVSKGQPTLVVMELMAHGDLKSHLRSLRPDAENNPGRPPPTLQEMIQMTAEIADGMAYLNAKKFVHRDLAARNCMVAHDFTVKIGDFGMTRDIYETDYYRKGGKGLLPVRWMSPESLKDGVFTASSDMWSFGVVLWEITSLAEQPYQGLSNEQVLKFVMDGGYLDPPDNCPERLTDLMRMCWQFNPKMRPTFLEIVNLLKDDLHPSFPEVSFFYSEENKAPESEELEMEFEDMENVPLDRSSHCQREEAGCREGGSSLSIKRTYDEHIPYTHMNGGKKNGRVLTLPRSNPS

[6] = target: T4, Neuropeptide Y receptor type 1 (Homo sapiens, UniProt P25929); type: cell membranes, Membrane; details: sk-n-mc; also: in other assays of this panel Not Active means under 50% inhibition at 10 µM
T4 sequence (P25929 whole entry): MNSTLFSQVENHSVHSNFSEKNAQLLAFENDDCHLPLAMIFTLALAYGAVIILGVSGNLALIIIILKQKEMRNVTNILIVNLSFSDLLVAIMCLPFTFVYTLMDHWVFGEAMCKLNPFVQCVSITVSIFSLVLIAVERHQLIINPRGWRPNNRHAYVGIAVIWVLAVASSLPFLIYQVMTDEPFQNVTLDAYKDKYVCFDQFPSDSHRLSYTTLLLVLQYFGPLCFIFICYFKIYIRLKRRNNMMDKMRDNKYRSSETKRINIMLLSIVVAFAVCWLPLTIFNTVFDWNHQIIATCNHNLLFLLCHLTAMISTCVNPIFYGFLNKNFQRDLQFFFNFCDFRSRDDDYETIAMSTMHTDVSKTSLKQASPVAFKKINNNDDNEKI

Row | Structure (SMILES) | IC50 ([1]; read-out: IC50) | Ki [1] | IC50 [2] | IC50 ([3]; read-out: IC50) | Ki [3] | IC50 [4] | IC50 (Cytochrome P450 2A6) | Ki (Cytochrome P450 2A6) | IC50 [5] | Ki [5] | IC50 (Insulin receptor) | IC50 [6] | IC50 ([1]; cho-k1) | IC50 [3]
1 | CC(C)[C@@]1(NC(=O)[C@@H]2C[C@@H]3c4cccc5[nH]cc(c45)C[C@H]3N(C)C2)O[C@@]2(O)[C@@H]3CCCN3C(=O)[C@H](Cc3ccccc3)N2C1=O.CS(=O)(=O)O [DIHYDROERGOCRISTINE MESYLATE] | 0.722 nM | 0.412 nM | Not Active | 24 nM | 11 nM | Not Active | Not Active | Not Active | Not Active | Not Active | Not Active | Not Active | – | –
2 | CC(=O)O[C@@]12CO[C@@H]1C[C@H](O)[C@@]1(C)C(=O)[C@H](O)C3=C(C)[C@@H](OC(=O)[C@H](O)[C@@H](NC(=O)OC(C)(C)C)c4ccccc4)C[C@@](O)([C@@H](OC(=O)c4ccccc4)[C@H]21)C3(C)C.O.O.O [DOCETAXEL] | – | – | Not Active | – | – | Not Active | Not Active | Not Active | Not Active | Not Active | Not Active | Not Active | Not Active | Not Active
3 | COc1cc2nc(N3CCN(C(=O)C4COc5ccccc5O4)CC3)nc(N)c2cc1OC (stereo not given) [DOXAZOSIN] | – | – | Not Active | – | – | Not Active | Not Active | Not Active | Not Active | Not Active | Not Active | Not Active | Not Active | Not Active
4 | C[C@H]1c2cccc(O)c2C(=O)C2=C(O)[C@]3(O)C(=O)C(C(N)=O)=C(O)[C@@H](N(C)C)[C@@H]3[C@@H](O)[C@@H]21.O [DOXYCYCLINE] | – | – | Not Active | – | – | Not Active | Not Active | Not Active | Not Active | Not Active | Not Active | Not Active | Not Active | Not Active
5 | O=C(CCCN1CC=C(n2c(=O)[nH]c3ccccc32)CC1)c1ccc(F)cc1 [DROPERIDOL] | 242 nM | 138 nM | Not Active | – | – | Not Active | Not Active | Not Active | Not Active | Not Active | Not Active | Not Active | – | Not Active
6 | CC(C)[C@H]1C(=O)N2CCC[C@H]2[C@]2(O)O[C@](NC(=O)[C@@H]3C=C4c5cccc6[nH]cc(c56)C[C@H]4N(C)C3)(C(C)C)C(=O)N12 [ERGOCORNINE] | 3.11 nM | 1.78 nM | Not Active | 30 nM | 19 nM | Not Active | Not Active | Not Active | Not Active | Not Active | Not Active | Not Active | – | –
7 | OC(Cn1cncn1)(Cn1cncn1)c1ccc(F)cc1F [FLUCONAZOLE] | – | – | Not Active | – | – | Not Active | Not Active | Not Active | Not Active | Not Active | Not Active | Not Active | Not Active | Not Active
8 | CC(C)C(=O)Nc1ccc([N+](=O)[O-])c(C(F)(F)F)c1 [FLUTAMIDE] | – | – | Not Active | – | – | Not Active | Not Active | Not Active | Not Active | Not Active | Not Active | Not Active | Not Active | Not Active
9 | CC1(C)O[C@@H]2C[C@H]3[C@@H]4CCC5=CC(=O)CC[C@]5(C)[C@@]4(F)[C@@H](O)C[C@]3(C)[C@]2(C(=O)CCl)O1 [HALCINONIDE] | – | – | Not Active | – | – | Not Active | Not Active | Not Active | Not Active | Not Active | Not Active | Not Active | Not Active | Not Active
10 | O=c1[nH]c(=O)n([C@H]2C[C@H](O)[C@@H](CO)O2)cc1I [IDOXURIDINE] | – | – | Not Active | – | – | Not Active | Not Active | Not Active | Not Active | Not Active | Not Active | Not Active | Not Active | Not Active
11 | CC1Cc2ccccc2N1NC(=O)c1ccc(Cl)c(S(N)(=O)=O)c1 (stereo not given) [INDAPAMIDE] | – | – | Not Active | – | – | Not Active | Not Active | Not Active | Not Active | Not Active | Not Active | Not Active | Not Active | Not Active
12 | Nc1nc(N)nc(-c2cc(Cl)ccc2Cl)n1.O=C(O)/C=C\C(=O)O [IRSOGLADINE MALEATE] | – | – | Not Active | – | – | Not Active | Not Active | Not Active | Not Active | Not Active | Not Active | Not Active | Not Active | Not Active
13 | CCC(C)n1ncn(-c2ccc(N3CCN(c4ccc(OCC5COC(Cn6cncn6)(c6ccc(Cl)cc6Cl)O5)cc4)CC3)cc2)c1=O (stereo not given) [ITRACONAZOLE] | – | – | Not Active | – | – | Not Active | Not Active | Not Active | Not Active | Not Active | Not Active | Not Active | Not Active | Not Active
14 | CCCCN1CCCC[C@H]1C(=O)Nc1c(C)cccc1C [LEVOBUPIVACAINE] | – | – | Not Active | – | – | Not Active | Not Active | Not Active | Not Active | Not Active | Not Active | Not Active | Not Active | Not Active
